In article PMC9147695, “Design, Synthesis, Bioactivity Evaluation, Crystal Structures, and In Silico Studies of New α-Amino Amide Derivatives as Potential Histone Deacetylase 6 Inhibitors” (Molecules, 2022):
Like-named read-outs stand apart in the source and are kept apart here.

Legend:
[1] = tested on: HL-60; experiment: Anti-proliferative activity, CTG assay, HL-60 cells; format: cell-based; conditions: for inhibition at 10 µM / inhibition at 50 µM: read-out: Inhibition rate HL-60 (%)
Method: (§1) RPMI 8226 and HL-7702 cells were cultured in RPMI-1640 medium, Hela cells were cultured in MEM medium, and HL-60 cells were cultured in IMDM medium with 1% penicillin–streptomycin solution and 10% FBS, respectively. The above cells were cultured at 37 °C and 5% CO2. After 24 h of cell spreading, 99 μL of medium per well was prepared and 1 μL of the compound prepared solution was added to the wells. Then, the solution was incubated at 37 °C in a 5% CO2 incubator for 72 h. The cell plates to be tested were left at room temperature and 100 μL of medium per well was discarded. Then, 100 μL of CTG reagent was added, placed in a rapid shaker for 2 min, and left at room temperature away from light for 30 min. The chemiluminescence signal was read by an envision multifunctional enzyme marker. The inhibition ratios and IC50 values were calculated using Prism Graph Pad software.

[2] = tested on: Hela; experiment: Anti-proliferative activity, CTG assay, Hela cells; format: cell-based; conditions: 72 h; for inhibition at 10 µM / inhibition at 50 µM: read-out: Inhibition rate Hela (%)
Method: as §1

[3] = tested on: RPMI 8226; experiment: Anti-proliferative activity, CTG assay, RPMI 8226 cells; format: cell-based; conditions: for inhibition at 10 µM / inhibition at 50 µM: read-out: Inhibition rate RPMI 8226 (%); for IC50: read-out: RPMI8226 (IC50)
Method: as §1

[4] = tested on: HL-7702; experiment: Cytotoxicity toward human normal liver cells HL-7702, CTG assay; format: cell-based; conditions: 72 h, read-out: 50% cytotoxic concentration (CC50) HL-7702
Method: as §1

[5] = as above; format: cell-based; conditions: human, HL-7702 normal liver cells, read-out: 50% cytotoxic concentration (CC50) HL-7702
Method: as §1

[6] = Homo sapiens, HL-60, 72 h, 10 μM
[7] = Homo sapiens, HL-60, 72 h, 50 μM
[8] = Homo sapiens, RPMI-8226, 72 h, 10 μM
[9] = Homo sapiens, RPMI-8226, 72 h, 50 μM

| SMILES | inhibition at 10 µM [1, 6] | inhibition at 50 µM [1, 7] | melting point | inhibition at 10 µM ([2]; Homo sapiens, HeLa, 10 μM) | inhibition at 50 µM ([2]; Homo sapiens, HeLa, 50 μM) | inhibition at 10 µM [3, 8] | inhibition at 50 µM [3, 9] | IC50 ([1]; Homo sapiens, HL-60, 72 h) | IC50 ([3]; Homo sapiens, RPMI-8226, 72 h) | CC50 at 72 h [5] | other results |
| --- | --- | --- | --- | --- | --- | --- | --- | --- | --- | --- | --- |
| COC(=O)[C@H]1CCCN1S(=O)(=O)c1ccc(-c2ccc(NC(=O)[C@H](C)N)nc2)cc1 [7f, (2R)-1-(4-{6-[(2S)-2-Aminopropionamido]pyridin-3-yl}benzenesulfonyl)pyrrolidine-2-carboxylate Methyl Ester] | 11.1 ± 0.74% | 28.2 ± 0.98% | 146.2 to 148.9 °C | -2.62 ± 1.36% | 21.6 ± 6.65% | -4.38 ± 0.19% | 29.4 ± 5.22% |  |  |  |  |
| COC(=O)[C@@H]1CCCN1S(=O)(=O)c1ccc(-c2ccc(NC(=O)CN)nc2)cc1 [13d] | 32 ± 3.2% | 99.93 ± 0.05% | 170.3 to 172.9 °C | -18.4 ± 2.15% | 33.4 ± 1.97% | 0.01 ± 0.52% | 92.27 ± 0.08% | 10.5 µM | 32.2 µM |  | IC50 ([2]; Homo sapiens, HeLa): 17.4 µM |
| COC(=O)[C@@H]1CCCN1S(=O)(=O)c1ccc(-c2ccc(NC(=O)[C@H](C)N)nc2)cc1 [13f, (2S)-1-(4-{6-[(2S)-2-Aminopropionamido]pyridin-3-yl}benzenesulfonyl)pyrrolidine-2-carboxylate Methyl Ester] | 13.9 ± 0.73% | 99.81 ± 0.12% | 146.8 to 149.1 °C | -6.37 ± 0.44% | 91.57 ± 0.51% | 12.4 ± 0.52% | 89.23 ± 0.24% |  |  |  |  |
| COC(=O)[C@H]1CCCN1S(=O)(=O)c1ccc(-c2ccc(NC(=O)[C@@H](C)N)nc2)cc1 [7e, Methyl (2R)-1-(4-{6-[(2R)-2-Aminopropionamido]pyridin-3-yl}benzenesulfonyl)pyrrolidine-2-carboxylate] | -0.89 ± 2.31% | 17.8 ± 0.86% | 146 to 148.4 °C | -11.9 ± 1.69% | 7.27 ± 0.41% | -2.63 ± 2.86% | 24.4 ± 0.79% |  |  |  |  |
| COC(=O)C1CCCN1S(=O)(=O)c1ccc(-c2ccc(NC(=O)CN)cc2)cc1 [13a, (2S)-Methyl 1-{4-[4-[4-(2-Aminoacetamido)phenyl]benzenesulfonyl}pyrrolidine-2-carboxylate] | 59 ± 2.12% | 99.25 ± 0.08% |  | 98.74 ± 0.04% | 99.68 ± 0.17% | 63.1 ± 1.99% | 99.89 ± 0.06% |  |  |  | CC50 [4]: 27.5 µM; IC50 ([1]; 72 h): 7.23 µM; IC50 [2]: 5.19 µM; IC50 ([3]; 72 h): 5.85 µM |
| COC(=O)[C@@H]1CCCN1S(=O)(=O)c1ccc(-c2ccc(NC(=O)[C@H](C)N)cc2)cc1 [13c, Methyl (2S)-1-(4-{4-[(2S)-2-Aminopropionamido]phenyl}benzenesulfonyl)pyrrolidine-2-carboxylate] | 20 ± 2.83% | 96.55 ± 0.22% | 155.3 to 157.6 °C | -3.69 ± 0.34% | 72.3 ± 1.57% | 29.6 ± 0.48% | 82.9 ± 2.04% | 30.9 µM | 10.7 µM | 43.7 µM | IC50 ([2]; Homo sapiens, HeLa): 20.6 µM |
| COC(=O)[C@@H]1CCCN1S(=O)(=O)c1ccc(-c2ccc(NC(=O)[C@@H](C)N)nc2)cc1 [13e, Methyl (2S)-1-(4-{6-[(2R)-2-Aminopropionamido]pyridin-3-yl}benzenesulfonyl)pyrrolidine-2-carboxylate] | 17.43 ± 0.16% | 99.98 ± 0.05% | 146.2 to 148.9 °C | -12.6 ± 1.59% | 81.6 ± 1.09% | 5.5 ± 1.12% | 94.89 ± 0.02% |  |  |  |  |
| COC(=O)[C@@H]1CCCN1S(=O)(=O)c1ccc(-c2ccc(NC(=O)[C@@H](C)N)cc2)cc1 [13b, (2S)-1-(4-{4-[(2R)-2-Aminopropionamido]phenyl}benzenesulfonyl)pyrrolidine-2-carboxylate Methyl Ester] | 43.49 ± 0.21% | 100.03 ± 0.04% | 156.4 to 159.1 °C | -4.83 ± 3.13% | 62.27 ± 0.57% | 0.89 ± 3.52% | 97.45 ± 0.36% | 10.3 µM | 25.2 µM | 89.1 µM | IC50 ([2]; Homo sapiens, HeLa): 20.6 µM |
| O=C(CCCCCCC(=O)Nc1ccccc1)NO [SAHA, vorinostat, reference compound] |  |  |  |  |  |  |  |  |  | 2.03 µM |  |
| COC(=O)C1CCCN1S(=O)(=O)c1ccc(-c2ccc(NC(=O)CN)cc2)cc1 [7a, (2R)-Methyl 1-{4-[4-[4-(2-Aminoacetamido)phenyl]benzenesulfonyl}pyrrolidine-2-carboxylate] |  |  | 163.4 to 165.3 °C |  |  |  |  | 10.8 µM | 4.16 µM | 21.1 µM | Inhibition rate HL-60 (%) ([1]; 10 μM, 72 h): 42.45 ± 1.11%; Inhibition rate HL-60 (%) ([1]; 50 μM, 72 h): 97.24 ± 0.02%; Inhibition rate Hela (%) ([2]; 10 μM): 98.11 ± 1.33%; Inhibition rate Hela (%) ([2]; 50 μM): 99.84 ± 0.11%; IC50 [2]: 0.31 µM; Inhibition rate RPMI 8226 (%) ([3]; 10 μM, 72 h): 74.54 ± 1.06%; Inhibition rate RPMI 8226 (%) ([3]; 50 μM, 72 h): 99.78 ± 0.03% |
| COC(=O)[C@H]1CCCN1S(=O)(=O)c1ccc(-c2ccc(NC(=O)[C@@H](C)N)cc2)cc1 [7b, (2R)-1-(4-{4-[(2R)-2-Aminopropionamido]phenyl}benzenesulfonyl)pyrrolidine-2-carboxylate Methyl Ester] | 4.32 ± 1.35% | 46.9 ± 1.33% | 157.4 to 159.1 °C | -10.9 ± 2.58% | 2.44 ± 0.72% | -4.81 ± 3.62% | 41.4 ± 1.25% |  |  |  |  |
| COC(=O)[C@H]1CCCN1S(=O)(=O)c1ccc(-c2ccc(NC(=O)CN)nc2)cc1 [7d] | 5.53 ± 1.21% | 16.9 ± 1.74% | 170.2 to 173.5 °C | -5.24 ± 0.18% | 41.8 ± 2.62% | 1.7 ± 0.72% | 89.7 ± 1.48% |  |  |  |  |
| COC(=O)[C@H]1CCCN1S(=O)(=O)c1ccc(-c2ccc(NC(=O)[C@H](C)N)cc2)cc1 [7c, Methyl (2R)-1-(4-{4-[(2S)-2-Aminopropionamido]phenyl}benzenesulfonyl)pyrrolidine-2-carboxylate] | 2.78 ± 0.7% | 49.6 ± 0.82% | 155.1 to 158.3 °C | -13.5 ± 1.33% | 8.63 ± 2.03% | 1.42 ± 0.97% | 49.7 ± 1.35% |  |  |  |  |
